From ChEMBL document CHEMBL3991601, “The target landscape of clinical kinase drugs” (Science, 2017) come the findings set out here.

Assay [1] has as its target T1, Peroxisomal acyl-coenzyme A oxidase 3 (Homo sapiens, UniProt O15254).
T1 sequence (O15254 whole entry): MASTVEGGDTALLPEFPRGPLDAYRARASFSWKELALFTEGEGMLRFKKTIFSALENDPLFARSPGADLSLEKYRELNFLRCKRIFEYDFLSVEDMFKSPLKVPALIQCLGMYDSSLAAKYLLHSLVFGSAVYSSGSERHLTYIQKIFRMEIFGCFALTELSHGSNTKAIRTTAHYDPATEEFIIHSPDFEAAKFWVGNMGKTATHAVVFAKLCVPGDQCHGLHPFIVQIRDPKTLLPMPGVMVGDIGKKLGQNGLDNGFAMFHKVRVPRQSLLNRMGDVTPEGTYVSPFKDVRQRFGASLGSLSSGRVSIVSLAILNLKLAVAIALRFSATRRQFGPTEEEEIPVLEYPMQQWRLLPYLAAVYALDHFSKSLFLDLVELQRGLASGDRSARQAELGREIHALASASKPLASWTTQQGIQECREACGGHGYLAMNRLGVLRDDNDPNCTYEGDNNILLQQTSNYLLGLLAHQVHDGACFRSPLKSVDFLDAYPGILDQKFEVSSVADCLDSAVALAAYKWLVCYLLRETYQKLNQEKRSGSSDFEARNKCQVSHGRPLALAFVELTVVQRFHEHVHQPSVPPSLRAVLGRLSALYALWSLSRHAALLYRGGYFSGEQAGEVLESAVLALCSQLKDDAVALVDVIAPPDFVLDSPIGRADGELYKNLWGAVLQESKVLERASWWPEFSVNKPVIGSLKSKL

A further assay deals with T2, Ephrin type-B receptor 4 (Homo sapiens, UniProt P54760).
T2 sequence (P54760 whole entry): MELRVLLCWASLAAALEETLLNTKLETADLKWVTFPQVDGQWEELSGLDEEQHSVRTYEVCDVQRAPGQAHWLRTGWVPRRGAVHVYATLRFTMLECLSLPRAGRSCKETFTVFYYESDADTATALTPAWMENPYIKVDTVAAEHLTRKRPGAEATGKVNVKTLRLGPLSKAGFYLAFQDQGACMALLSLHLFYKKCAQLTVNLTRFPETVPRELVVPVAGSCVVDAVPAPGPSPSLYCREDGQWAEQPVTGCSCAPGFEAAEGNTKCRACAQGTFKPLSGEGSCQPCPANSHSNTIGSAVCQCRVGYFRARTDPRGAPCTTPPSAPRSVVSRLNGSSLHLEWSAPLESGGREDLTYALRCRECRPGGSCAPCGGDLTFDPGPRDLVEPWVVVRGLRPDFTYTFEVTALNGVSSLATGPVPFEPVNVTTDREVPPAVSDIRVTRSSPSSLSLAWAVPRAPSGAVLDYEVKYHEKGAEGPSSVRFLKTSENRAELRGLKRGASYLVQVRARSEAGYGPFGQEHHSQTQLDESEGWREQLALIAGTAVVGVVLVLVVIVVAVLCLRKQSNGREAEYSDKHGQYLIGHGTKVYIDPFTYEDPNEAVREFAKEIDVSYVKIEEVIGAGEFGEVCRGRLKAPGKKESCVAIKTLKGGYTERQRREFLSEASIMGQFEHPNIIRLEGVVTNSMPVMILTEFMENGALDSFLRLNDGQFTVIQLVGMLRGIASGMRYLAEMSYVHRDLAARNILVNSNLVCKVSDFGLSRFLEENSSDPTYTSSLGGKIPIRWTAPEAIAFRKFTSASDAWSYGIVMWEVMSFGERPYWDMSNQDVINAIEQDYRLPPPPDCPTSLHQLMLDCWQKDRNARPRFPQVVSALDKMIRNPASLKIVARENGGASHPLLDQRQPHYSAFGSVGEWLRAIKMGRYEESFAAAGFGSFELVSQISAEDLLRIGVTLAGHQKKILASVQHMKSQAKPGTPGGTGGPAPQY

A further assay has as its target GTP-binding protein 4 (Homo sapiens, UniProt Q9BZE4).
For assay [2], the target named is Mitogen-activated protein kinase 1 (Homo sapiens, UniProt P28482).
Mitogen-activated protein kinase 1, sequence (P28482 whole entry): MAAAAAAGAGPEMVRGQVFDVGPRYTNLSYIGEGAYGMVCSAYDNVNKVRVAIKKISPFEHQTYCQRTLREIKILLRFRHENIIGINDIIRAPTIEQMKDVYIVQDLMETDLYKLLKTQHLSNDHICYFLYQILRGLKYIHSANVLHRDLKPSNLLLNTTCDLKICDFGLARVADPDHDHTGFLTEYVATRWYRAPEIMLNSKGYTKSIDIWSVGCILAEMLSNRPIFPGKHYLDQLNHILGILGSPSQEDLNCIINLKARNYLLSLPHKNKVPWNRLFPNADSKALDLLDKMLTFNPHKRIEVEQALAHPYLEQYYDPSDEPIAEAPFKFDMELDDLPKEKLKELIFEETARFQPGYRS
Assay [3] addresses Rho-associated protein kinase 2 (Homo sapiens, UniProt O75116).
Assay [4] deals with Serine/threonine-protein kinase 10 (Homo sapiens, UniProt O94804).
Serine/threonine-protein kinase 10, sequence (O94804 whole entry): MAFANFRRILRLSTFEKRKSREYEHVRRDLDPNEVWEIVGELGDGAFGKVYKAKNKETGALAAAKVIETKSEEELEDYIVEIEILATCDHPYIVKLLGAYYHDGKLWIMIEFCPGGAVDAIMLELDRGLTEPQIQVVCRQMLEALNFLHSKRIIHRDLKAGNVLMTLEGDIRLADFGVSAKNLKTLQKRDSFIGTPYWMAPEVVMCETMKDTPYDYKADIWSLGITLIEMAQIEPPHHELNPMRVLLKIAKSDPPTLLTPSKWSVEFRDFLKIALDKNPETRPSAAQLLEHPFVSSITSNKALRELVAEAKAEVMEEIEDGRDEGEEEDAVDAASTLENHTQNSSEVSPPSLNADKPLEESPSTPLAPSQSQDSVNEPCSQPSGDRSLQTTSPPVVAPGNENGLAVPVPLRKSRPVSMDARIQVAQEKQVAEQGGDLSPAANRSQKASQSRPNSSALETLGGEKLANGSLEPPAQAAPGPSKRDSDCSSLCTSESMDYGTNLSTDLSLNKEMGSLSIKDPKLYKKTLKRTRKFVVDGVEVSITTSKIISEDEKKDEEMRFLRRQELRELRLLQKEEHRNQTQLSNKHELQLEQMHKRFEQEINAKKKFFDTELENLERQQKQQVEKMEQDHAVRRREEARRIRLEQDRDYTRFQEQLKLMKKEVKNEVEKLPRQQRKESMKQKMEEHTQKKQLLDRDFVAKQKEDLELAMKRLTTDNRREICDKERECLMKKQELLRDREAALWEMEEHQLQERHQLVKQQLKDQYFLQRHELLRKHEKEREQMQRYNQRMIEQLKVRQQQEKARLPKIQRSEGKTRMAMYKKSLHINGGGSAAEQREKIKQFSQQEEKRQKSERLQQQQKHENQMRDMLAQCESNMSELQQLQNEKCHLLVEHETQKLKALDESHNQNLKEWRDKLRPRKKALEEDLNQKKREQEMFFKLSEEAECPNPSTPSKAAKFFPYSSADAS
For assay [5], the target named is T3, Serine/threonine-protein kinase 4 (Homo sapiens, UniProt Q13043).
T3 sequence (Q13043 whole entry): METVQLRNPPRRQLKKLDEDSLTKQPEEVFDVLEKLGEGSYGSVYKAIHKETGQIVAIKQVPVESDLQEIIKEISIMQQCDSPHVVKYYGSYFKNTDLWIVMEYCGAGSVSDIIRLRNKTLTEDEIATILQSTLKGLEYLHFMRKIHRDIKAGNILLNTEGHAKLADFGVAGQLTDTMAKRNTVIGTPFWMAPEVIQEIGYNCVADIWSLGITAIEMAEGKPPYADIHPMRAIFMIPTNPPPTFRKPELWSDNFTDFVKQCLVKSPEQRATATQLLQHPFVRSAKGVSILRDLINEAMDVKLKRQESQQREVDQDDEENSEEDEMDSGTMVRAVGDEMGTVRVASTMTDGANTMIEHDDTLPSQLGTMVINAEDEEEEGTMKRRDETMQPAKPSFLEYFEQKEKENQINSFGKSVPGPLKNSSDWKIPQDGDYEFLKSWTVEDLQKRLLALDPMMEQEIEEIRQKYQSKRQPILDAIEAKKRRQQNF

Structures are written as SMILES. The source made the active and inactive calls. For most assays here, no stated cut-off is given here; in the data, actives have a measured Kd and inactives only a lower limit.

Rho-associated protein kinase 2, sequence (O75116 whole entry): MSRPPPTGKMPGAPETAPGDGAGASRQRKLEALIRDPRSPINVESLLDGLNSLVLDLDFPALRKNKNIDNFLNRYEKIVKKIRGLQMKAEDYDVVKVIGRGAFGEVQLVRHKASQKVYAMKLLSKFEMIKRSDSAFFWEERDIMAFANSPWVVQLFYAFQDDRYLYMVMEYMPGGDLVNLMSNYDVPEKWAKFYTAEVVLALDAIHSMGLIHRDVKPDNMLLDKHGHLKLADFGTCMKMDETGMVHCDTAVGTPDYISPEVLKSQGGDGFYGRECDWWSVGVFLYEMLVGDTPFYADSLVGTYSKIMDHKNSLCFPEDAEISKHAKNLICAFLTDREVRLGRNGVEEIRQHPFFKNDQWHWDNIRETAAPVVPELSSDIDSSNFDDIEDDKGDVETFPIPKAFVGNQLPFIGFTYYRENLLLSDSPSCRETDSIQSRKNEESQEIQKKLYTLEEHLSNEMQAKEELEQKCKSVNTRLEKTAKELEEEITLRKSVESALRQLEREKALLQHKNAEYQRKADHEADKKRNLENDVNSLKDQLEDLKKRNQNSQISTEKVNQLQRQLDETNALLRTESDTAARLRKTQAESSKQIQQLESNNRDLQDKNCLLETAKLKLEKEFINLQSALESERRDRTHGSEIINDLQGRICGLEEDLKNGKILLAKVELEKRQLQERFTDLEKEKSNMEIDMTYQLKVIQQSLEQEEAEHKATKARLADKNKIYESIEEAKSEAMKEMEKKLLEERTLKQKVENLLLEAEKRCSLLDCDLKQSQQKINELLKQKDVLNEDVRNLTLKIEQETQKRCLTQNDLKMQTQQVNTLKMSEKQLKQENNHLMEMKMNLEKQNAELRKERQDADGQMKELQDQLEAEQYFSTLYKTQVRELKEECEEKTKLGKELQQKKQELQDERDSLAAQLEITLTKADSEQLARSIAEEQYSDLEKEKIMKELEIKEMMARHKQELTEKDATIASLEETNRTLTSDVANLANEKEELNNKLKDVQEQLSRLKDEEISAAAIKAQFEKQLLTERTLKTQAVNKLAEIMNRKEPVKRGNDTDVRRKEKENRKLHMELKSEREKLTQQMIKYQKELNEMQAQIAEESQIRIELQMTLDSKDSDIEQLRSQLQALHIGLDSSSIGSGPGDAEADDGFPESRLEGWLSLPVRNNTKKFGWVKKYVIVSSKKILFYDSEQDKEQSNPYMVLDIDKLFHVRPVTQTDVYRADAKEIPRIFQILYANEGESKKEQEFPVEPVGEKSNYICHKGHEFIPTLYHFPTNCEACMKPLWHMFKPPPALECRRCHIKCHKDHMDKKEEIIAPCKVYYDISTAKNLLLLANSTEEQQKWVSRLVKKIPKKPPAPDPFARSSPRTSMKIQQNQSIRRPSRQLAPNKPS

For `C[C@@H](Oc1cc(C(=O)Nc2ccc(C(=O)N3CCN(C)CC3)cc2)nnc1N)c1c(Cl)ccc(F)c1Cl`, the Kd (in assay [1]; on Ephrin type-B receptor 4; at GTP-binding protein 4; in assay [2]; in assay [3]; in assay [4]) was > 30 µM (inactive) throughout. Moreover, in assay [5], the Kd (commonly the concentration at which binding is half-saturated) is > 30 µM (inactive).

For `C[C@H]1CNCCCN1S(=O)(=O)c1cccc2cncc(F)c12`, the Kd in assay [1] is > 30 µM (inactive); on Ephrin type-B receptor 4, > 30 µM (inactive); in assay [2], > 30 µM (inactive); in assay [3] it was 0.083 µM (active); in assay [4] it was > 30 µM (inactive); in assay [5], > 30 µM (inactive).

Turning to `CC(=O)c1cnc2ccc(-c3cc(Cl)c(O)c(Cl)c3)nc2c1N[C@H]1CC[C@H](CN(C)C)CC1`, the Kd is > 30 µM (inactive) in assay [1]; 0.143 µM (active) at Ephrin type-B receptor 4; > 30 µM (inactive) on GTP-binding protein 4; > 30 µM (inactive) in assay [2]; > 30 µM (inactive) in assay [3]; 0.014 µM (active) in assay [4]. In assay [5], the Kd was 0.067 µM (active).

Take `CCNC(=O)C#Cc1ccc2c(c1)NC(=O)/C2=C(\Nc1ccc(CN(C)C)cc1)c1ccccc1`: the Kd in assay [1] is > 30 µM (inactive); on Ephrin type-B receptor 4, > 30 µM (inactive); in assay [2], > 30 µM (inactive); in assay [3] it was > 30 µM (inactive); in assay [4] it was 0.136 µM (active); in assay [5], 1.26 µM (active).

As for `C=CC(=O)N1CCC[C@H](n2c(=O)n(-c3ccc(Oc4ccccc4)cc3)c3c(N)ncnc32)C1`, the Kd (in assay [1]; on Ephrin type-B receptor 4; on GTP-binding protein 4; in assay [2]; in assay [3]; in assay [4]) was > 30 µM (inactive) in each case. Further, the Kd in assay [5] is > 30 µM (inactive).

For the molecule `COCc1c(-c2ccc(NC(=O)Nc3cc(C(F)(F)F)ccc3F)c(F)c2)c2c(N)ncnn2c1CN1CCOCC1`, the Kd (in assay [1]; at Ephrin type-B receptor 4; at GTP-binding protein 4; in assay [2]; in assay [3]; in assay [4]) was > 30 µM (inactive) in each case. Further, the Kd in assay [5] is > 30 µM (inactive).

As for `Nc1ncnc2c1c(-c1cccc(OCc3ccccc3)c1)cn2[C@H]1C[C@@H](CN2CCC2)C1` [AEW-541], the Kd in assay [1] is > 30 µM (inactive); at Ephrin type-B receptor 4 it was > 30 µM (inactive); in assay [2], > 30 µM (inactive); in assay [3] it was 18.3 µM (active); in assay [4], > 30 µM (inactive); in assay [5], 3.77 µM (active).

As to `Cc1nc(NC(=O)N2CCC[C@H]2C(N)=O)sc1-c1ccnc(C(C)(C)C(F)(F)F)c1` [ALPELISIB], the Kd (in assay [1]; on Ephrin type-B receptor 4; on GTP-binding protein 4; in assay [2]; in assay [3]; in assay [4]) was > 30 µM (inactive) in each case. Further, the Kd in assay [5] was > 30 µM (inactive).

Turning to `Cc1csc(-c2nnc(Nc3ccc(Oc4ncccc4-c4ccnc(N)n4)cc3)c3ccccc23)c1` [AMG-900], the Kd (in assay [1]; at Ephrin type-B receptor 4; at GTP-binding protein 4; in assay [2]; in assay [3]; in assay [4]) was > 30 µM (inactive) throughout. Moreover, the Kd in assay [5] is > 30 µM (inactive).

`O=C(Nc1c[nH]nc1-c1nc2cc(CN3CCOCC3)ccc2[nH]1)NC1CC1` [AT-9283]: the Kd in assay [1] was > 30 µM (inactive); on GTP-binding protein 4, > 30 µM (inactive); in assay [2], > 30 µM (inactive); in assay [3] it was > 30 µM (inactive); in assay [4], 0.082 µM (active); in assay [5], > 30 µM (inactive).

On to `C=CC(=O)Nc1cc2c(Nc3ccc(F)c(Cl)c3)ncnc2cc1C#CC(C)(C)N1CCN(C)CC1` [AV-412 FREE BASE], for which the Kd in assay [1] is > 30 µM (inactive); on Ephrin type-B receptor 4, > 30 µM (inactive); at GTP-binding protein 4, > 30 µM (inactive); in assay [2], > 30 µM (inactive); in assay [3], > 30 µM (inactive); in assay [4] it was 28.6 µM (active). Moreover, the Kd in assay [5] is > 30 µM (inactive).

`COc1cc([C@@H]2c3cc4c(cc3[C@H](O)[C@H]3COC(=O)[C@@H]23)OCO4)cc(OC)c1OC` [AXL-1717]: the Kd (in assay [1]; at Ephrin type-B receptor 4; at GTP-binding protein 4; in assay [2]; in assay [3]; in assay [4]) was > 30 µM (inactive) each time. In addition, the Kd in assay [5] was > 30 µM (inactive).

For the molecule `NC(=O)Nc1cc(-c2cccc(F)c2)sc1C(=O)N[C@H]1CCCNC1` [AZD-7762], the Kd in assay [1] was > 30 µM (inactive); at Ephrin type-B receptor 4, > 30 µM (inactive); on GTP-binding protein 4, > 30 µM (inactive); in assay [2] it was > 30 µM (inactive); in assay [3] it was > 30 µM (inactive); in assay [4] it was 0.36 µM (active). Besides, the Kd in assay [5] was 0.056 µM (active).

Consider `O=C(Nc1cc(C(F)(F)F)cc(C(F)(F)F)c1)c1cc(Cl)ccc1O` [IMD-0354], for which the Kd (in assay [1]; on Ephrin type-B receptor 4; at GTP-binding protein 4; in assay [3]; in assay [4]; in assay [5]) was > 30 µM (inactive) throughout.

As to `CNC(=O)c1nn(C)c2c1C(C)(C)Cc1cnc(Nc3ccc(N4CCN(C)CC4)cc3)nc1-2` [MILCICLIB], the Kd is > 30 µM (inactive) in assay [1]; 1.07 µM (active) at Ephrin type-B receptor 4; > 30 µM (inactive) in assay [2]; > 30 µM (inactive) in assay [3]; > 30 µM (inactive) in assay [4]; > 30 µM (inactive) in assay [5].

Take `CN1CCN(CCOc2cc(OC3CCOCC3)c3c(Nc4c(Cl)ccc5c4OCO5)ncnc3c2)CC1` [SARACATINIB]: the Kd in assay [1] is > 30 µM (inactive); on Ephrin type-B receptor 4 it was 3.88 µM (active); in assay [2], > 30 µM (inactive); in assay [3], > 30 µM (inactive); in assay [4], 11.7 µM (active); in assay [5], > 30 µM (inactive).

For `C[C@@H](N)c1ccc(C(=O)Nc2ccnc3[nH]ccc23)cc1` [Y-39983], the Kd (in assay [1]; at Ephrin type-B receptor 4; at GTP-binding protein 4; in assay [2]; in assay [4]; in assay [5]) was > 30 µM (inactive) each time.
